Measured values reported in patent US8846933B2, “N-link hydroxamic acid derivatives useful as antibacterial agents” (Pfizer Inc., priority 2009, dated 2014).

How the values were obtained:
Assay type in all cases: cell-based
[1] = test system: Pseudomonas aeruginosa UI-18: Wild-type (PA-7); experiment: MIC determination (CLSI), strain PA-7; conditions: Pseudomonas aeruginosa UI-18, wild-type; unit assumed
Outline: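 Strain tested was P. aeruginosa UI-18, a wild-type isolate labelled PA-7. Minimum inhibitory concentrations followed CLSI dilution methodology for aerobically growing bacteria (M7-A7, M100-S18).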

[2] = test system: Acinetobacter baumanii/haemolyticus: Multidrug-resistant clinical isolate (AB-3167); experiment: MIC determination (CLSI), strain AB-3167; conditions: unit assumed
Experimental: The in vitro antibacterial activity of compounds described in the Examples was evaluated by minimum inhibitory concentration (MIC) testing according to Clinical and Laboratory Standards Institute (CLSI, formerly NCCLS) guidelines. See: Clinical and Laboratory Standards Institute. Methods for Dilution Antimicrobial Susceptibility Tests for Bacteria that Grow Aerobically; Approved Standard-Seventh Edition. CLSI document M7-A7 [ISBN 1-56238-587-9]. Clinical and Laboratory Standards Institute, 940 West Valley Road, Suite 1400, Wayne, Pa. 19087-1898 USA, 2006; also Clinical and Laboratory Standards Institute. Performance Standards for Antimicrobial Susceptibility Testing; Eighteenth Informational Supplement. CLSI document M100-S18 [ISBN1-56238-653-0].Clinical and Laboratory Standards Institute.
The following bacterial strains were used in these MIC determinations:
2) Acinetobacter baumanii/haemolyticus: Multidrug-resistant clinical isolate labeled as AB-3167 in Tables 4 and 5;

[3] = test system: Escherichia coli EC-1: VOGEL, mouse virulent; experiment: MIC determination (CLSI), strain EC-1; conditions: Escherichia coli EC-1, VOGEL, mouse virulent; unit assumed
Outline: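 The mouse-virulent VOGEL isolate of E. coli, EC-1, served as test organism. Minimum inhibitory concentration was measured by CLSI dilution methodology (M7-A7; M100-S18 standards).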

C[C@@](CCn1ccc(C2=CCCCC2)cc1=O)(C(=O)NO)S(C)(=O)=O [Example 68-K, (2R)-4-(4-cyclohex-1-en-1-yl-2-oxopyridin-1(2H)-yl)-N-hydroxy-2-methyl-2-(methylsulfonyl)butanamide]
PA-7 (MIC) [1]: 1 µg/mL
AB-3167 (MIC) [2]: > 64 µg/mL
EC-1 (MIC) [3]: 4 µg/mL

COc1ccc(-c2ccn(CC[C@](C)(C(=O)NO)S(C)(=O)=O)c(=O)c2)c(F)c1F [Example 44, (2R)-4-[4-(2,3-difluoro-4-methoxyphenyl)-2-oxopyridin-1(2H)-yl]-N-hydroxy-2-methyl-2-(methylsulfonyl)butanamide]
PA-7 (MIC) [1]: 1 µg/mL
AB-3167 (MIC) [2]: > 64 µg/mL
EC-1 (MIC) [3]: 0.015 µg/mL

C[C@@](CCn1ccc(-c2ccc(OCCC3CC(O)C3)cc2)cc1=O)(C(=O)NO)S(C)(=O)=O (stereo partly drawn) [Example 32, (2R)-N-hydroxy-4-[4-{4-[2-(3-hydroxycyclobutyl)ethoxy]phenyl}-2-oxopyridin-1(2H)-yl]-2-methyl-2-(methylsulfonyl)butanamide]
PA-7 (MIC) [1]: 1 µg/mL
AB-3167 (MIC) [2]: > 64 µg/mL
EC-1 (MIC) [3]: 0.25 µg/mL

C[C@@](CCn1ccc(-c2cccc(Cl)c2Cl)cc1=O)(C(=O)NO)S(C)(=O)=O [Example 46, (2R)-4-[4-(2,3-dichlorophenyl)-2-oxopyridin-1(2H)-yl]-N-hydroxy-2-methyl-2-(methylsulfonyl)butanamide]
PA-7 (MIC) [1]: 0.5 µg/mL
AB-3167 (MIC) [2]: > 64 µg/mL
EC-1 (MIC) [3]: 0.25 µg/mL

COc1ccc(-c2ccn(CC[C@](C)(C(=O)NO)S(C)(=O)=O)c(=O)c2)c(F)c1 [Example 21, (2R)-4-[4-(2-fluoro-4-methoxyphenyl)-2-oxopyridin-1(2H)-yl]-N-hydroxy-2-methyl-2-(methylsulfonyl)butanamide]
PA-7 (MIC) [1]: 0.25 µg/mL
AB-3167 (MIC) [2]: 32 µg/mL
EC-1 (MIC) [3]: 0.125 µg/mL

CC(O)c1ccc(-c2ccn(CCC(C)(C(=O)NO)S(C)(=O)=O)c(=O)c2)cc1 (stereo not drawn) [Example 68-Q, N-hydroxy-4-{4-[4-(1-hydroxyethyl)phenyl]-2-oxopyridin-1(2H)-yl}-2-methyl-2-(methylsulfonyl)butanamide]
PA-7 (MIC) [1]: 16 µg/mL
AB-3167 (MIC) [2]: > 64 µg/mL
EC-1 (MIC) [3]: 64 µg/mL

CC(CCn1ccc(-c2ccc3c(c2)CCC(O)C3)cc1=O)(C(=O)NO)S(C)(=O)=O (stereo not drawn) [Example 68-O, N-hydroxy-4-[4-(6-hydroxy-5,6,7,8-tetrahydronaphthalen-2-yl)-2-oxopyridin-1(2H)-yl]-2-methyl-2-(methylsulfonyl)butanamide]
PA-7 (MIC) [1]: 8 µg/mL
AB-3167 (MIC) [2]: > 64 µg/mL
EC-1 (MIC) [3]: 16 µg/mL

C[C@@](CCn1ccc(-c2ccc([C@H]3C[C@@](C)(O)C3)cc2)cc1=O)(C(=O)NO)S(C)(=O)=O [Example 68-H, (2R)-N-hydroxy-4-{4-[4-(cis-3-hydroxy-3-methylcyclobutyl)phenyl]-2-oxopyridin-1(2H)-yl}-2-methyl-2-(methylsulfonyl)butanamide]
PA-7 (MIC) [1]: 1 µg/mL
AB-3167 (MIC) [2]: > 64 µg/mL
EC-1 (MIC) [3]: 2 µg/mL

C[C@@](CCn1ccc(-c2ccccc2)c(F)c1=O)(C(=O)NO)S(C)(=O)=O [Example 55, (2R)-4-(3-fluoro-2-oxo-4-phenylpyridin-1(2H)-yl)-N-hydroxy-2-methyl-2-(methylsulfonyl)butanamide]
PA-7 (MIC) [1]: 1 µg/mL
AB-3167 (MIC) [2]: > 64 µg/mL
EC-1 (MIC) [3]: 8 µg/mL

C[C@@](CCn1ccc(-c2ccc(Cl)cc2)cc1=O)(C(=O)NO)S(C)(=O)=O [Example 15, (2R)-4-[4-(4-chlorophenyl)-2-oxopyridin-1(2H)-yl]-N-hydroxy-2-methyl-2-(methylsulfonyl)butanamide]
PA-7 (MIC) [1]: 0.5 µg/mL
AB-3167 (MIC) [2]: > 64 µg/mL
EC-1 (MIC) [3]: 0.5 µg/mL

Cc1cccc(-c2ccn(CC[C@](C)(C(=O)NO)S(C)(=O)=O)c(=O)c2)c1Cl [Example 68-E, (2R)-4-[4-(2-chloro-3-methylphenyl)-2-oxopyridin-1(2H)-yl]-N-hydroxy-2-methyl-2-(methylsulfonyl)butanamide]
PA-7 (MIC) [1]: 0.5 µg/mL
AB-3167 (MIC) [2]: 64 µg/mL
EC-1 (MIC) [3]: 0.25 µg/mL

C[C@@](CCn1ccc(-c2ccc(N3CCC(CO)CC3)cc2)cc1=O)(C(=O)NO)S(C)(=O)=O [Example 61, (2R)-N-hydroxy-4-[4-{4-[4-(hydroxymethyl)piperidin-1-yl]phenyl}-2-oxopyridin-1(2H)-yl]-2-methyl-2-(methylsulfonyl)butanamide]
PA-7 (MIC) [1]: 2 µg/mL
AB-3167 (MIC) [2]: > 64 µg/mL
EC-1 (MIC) [3]: 64 µg/mL

Cc1ncc(-c2ccc(-c3ccn(CC[C@](C)(C(=O)NO)S(C)(=O)=O)c(=O)c3)cc2)cn1 [Example 27, (2R)-N-hydroxy-2-methyl-4-{4-[4-(2-methylpyrimidin-5-yl)phenyl]-2-oxopyridin-1(2H)-yl}-2-(methylsulfonyl)butanamide]
PA-7 (MIC) [1]: 4 µg/mL
AB-3167 (MIC) [2]: > 64 µg/mL
EC-1 (MIC) [3]: 16 µg/mL

C[C@@](CCn1ccc(-c2ccc(OC[C@H]3CC[C@H](O)CC3)cc2F)cc1=O)(C(=O)NO)S(C)(=O)=O [Example 10, (2R)-4-[4-{2-fluoro-4-[(trans-4-hydroxycyclohexyl)methoxy]phenyl}-2-oxopyridin-1(2H)-yl]-N-hydroxy-2-methyl-2-(methylsulfonyl) butanamide]
PA-7 (MIC) [1]: 1 µg/mL
AB-3167 (MIC) [2]: > 64 µg/mL
EC-1 (MIC) [3]: 0.25 µg/mL

C[C@@](CCn1ccc(-c2ccc(OCC3CC(CO)C3)cc2)cc1=O)(C(=O)NO)S(C)(=O)=O (stereo partly drawn) [Example 10-D, (2R)-N-hydroxy-4-[4-(4-{[3-(hydroxymethyl)cyclobutyl]methoxy}phenyl)-2-oxopyridin-1(2H)-yl]-2-methyl-2-(methylsulfonyl)butanamide]
PA-7 (MIC) [1]: 1 µg/mL
AB-3167 (MIC) [2]: > 64 µg/mL
EC-1 (MIC) [3]: 0.25 µg/mL

C[C@@](CCn1ccc(C#Cc2ccccc2)cc1=O)(C(=O)NO)S(C)(=O)=O [Example 65, (2R)-N-Hydroxy-2-methyl-2-(methylsulfonyl)-4-[2-oxo-4-(phenylethynyl)pyridin-1(2H)-yl]butanamide]
PA-7 (MIC) [1]: 0.5 µg/mL
AB-3167 (MIC) [2]: 64 µg/mL
EC-1 (MIC) [3]: 0.125 µg/mL

Cn1c(-c2ccn(CCC(C)(C(=O)NO)S(C)(=O)=O)c(=O)c2)cc2ccccc21 (stereo not drawn) [Example 68-R, N-hydroxy-2-methyl-4-[4-(1-methyl-1H-indol-2-yl)-2-oxopyridin-1(2H)-yl]-2-(methylsulfonyl)butanamide]
PA-7 (MIC) [1]: 8 µg/mL
AB-3167 (MIC) [2]: > 64 µg/mL
EC-1 (MIC) [3]: 4 µg/mL

C[C@@](CCn1ccc(-c2ccc([C@H]3C[C@H](O)C3)cc2)cc1=O)(C(=O)NO)S(C)(=O)=O [Example 6, (2R)-N-hydroxy-4-{4-[4-(trans-3-hydroxycyclobutyl)phenyl]-2-oxopyridin-1(2H)-yl}-2-methyl-2-(methylsulfonyl)butanamide]
PA-7 (MIC) [1]: 4 µg/mL
AB-3167 (MIC) [2]: > 64 µg/mL
EC-1 (MIC) [3]: 4 µg/mL

C[C@@](CCn1ccc(-c2ccccc2F)cc1=O)(C(=O)NO)S(C)(=O)=O [Example 43, (2R)-4-[4-(2-fluorophenyl)-2-oxopyridin-1(2H)-yl]-N-hydroxy-2-methyl-2-(methylsulfonyl)butanamide]
PA-7 (MIC) [1]: 0.5 µg/mL
AB-3167 (MIC) [2]: > 64 µg/mL
EC-1 (MIC) [3]: 1 µg/mL

C[C@@](CCn1ccc(-c2ccc(-n3cccn3)cc2)cc1=O)(C(=O)NO)S(C)(=O)=O [Example 1, (2R)-N-hydroxy-2-methyl-2-(methylsulfonyl)-4-{2-oxo-4-[4-(1H-pyrazol-1-yl)phenyl]pyridin-1(2H)-yl}butanamide]
PA-7 (MIC) [1]: 2 µg/mL
AB-3167 (MIC) [2]: > 64 µg/mL
EC-1 (MIC) [3]: 0.5 µg/mL

CC(C)(O)COc1ccc(-c2ccn(CCC(C)(C(=O)NO)S(C)(=O)=O)c(=O)c2)cc1 (stereo not drawn) [Example 10-J, N-hydroxy-4-{4-[4-(2-hydroxy-2-methylpropoxy)phenyl]-2-oxopyridin-1(2H)-yl}-2-methyl-2-(methylsulfonyl)butanamide]
PA-7 (MIC) [1]: 8 µg/mL
AB-3167 (MIC) [2]: > 64 µg/mL
EC-1 (MIC) [3]: 4 µg/mL

Cc1cc2cc(-c3ccn(CC[C@](C)(C(=O)NO)S(C)(=O)=O)c(=O)c3)ccc2[nH]1 [Example 19, (2R)-N-hydroxy-2-methyl-4-[4-(2-methyl-1H-indol-5-yl)-2-oxopyridin-1(2H)-yl]-2-(methylsulfonyl)butanamide]
PA-7 (MIC) [1]: 2 µg/mL
AB-3167 (MIC) [2]: > 64 µg/mL
EC-1 (MIC) [3]: 1 µg/mL

C[C@@](CCn1cc(F)c(-c2ccccc2)cc1=O)(C(=O)NO)S(C)(=O)=O [Example 56, (2R)-4-(5-fluoro-2-oxo-4-phenylpyridin-1(2H)-yl)-N-hydroxy-2-methyl-2-(methylsulfonyl)butanamide]
PA-7 (MIC) [1]: 1 µg/mL
AB-3167 (MIC) [2]: > 64 µg/mL
EC-1 (MIC) [3]: 4 µg/mL

C[C@@](CCn1ccc(-c2ccc(C(F)(F)F)cc2)cc1=O)(C(=O)NO)S(C)(=O)=O [Example 68-I, (2R)-N-hydroxy-2-methyl-2-(methylsulfonyl)-4-{2-oxo-4-[4-(trifluoromethyl)phenyl]pyridin-1(2H)-yl}butanamide]
PA-7 (MIC) [1]: 1 µg/mL
AB-3167 (MIC) [2]: > 64 µg/mL
EC-1 (MIC) [3]: 1 µg/mL

CC(CCn1ccc(OCCCC2CCCCC2)cc1=O)(C(=O)NO)S(C)(=O)=O (stereo not drawn) [Example 66, 4-[4-(3-Cyclohexylpropoxy)-2-oxopyridin-1(2H)-yl]-N-hydroxy-2-methyl-2-(methylsulfonyl)butanamide]
PA-7 (MIC) [1]: 8 µg/mL
AB-3167 (MIC) [2]: 2 µg/mL
EC-1 (MIC) [3]: 1 µg/mL
